Assay results published in patent US20050113405A1, “Methods of treating rheumatoid arthritis using NF-kB inhibitors” (Wyeth, priority 2003, published 2005).
Each block holds one compound with its values, some of them ahead of it.

Assays:
HLA-B27 transgenic rats [1] = experiment: HLA-B27 transgenic rat, stool and clinical joint scores; type: in vivo; details: sub-optimal dose 0.6 mg/kg
Text: (§1) The HLA-B27 transgenic rat expresses two human proteins (HLA-B27 and β2 microglobulin) that, over time, provoke a misdirected immune response. This model represents a chronic intestinal inflammation with associated arthritis induced by the human class I major histocompatibility allele HLA-B27 that is strongly associated with human disease. […] If the disease is allowed to progress, they begin to show symptoms of arthritis. […] Histological scoring of synovitis and cartilage damage in the tarsal joints after 29 days of treatment was also conducted.

HLA-B27 transgenic rats [2] = experiment: HLA-B27 transgenic rat, histological scoring of synovitis and cartilage damage in tarsal joints; type: in vivo; details: 0.6 mg/kg orally for 29 days
Text: as §1

[3] = tested on: Lewis rats with adjuvant-induced arthritis; experiment: Adjuvant-induced arthritis in Lewis rats, daily joint scores (hindpaw erythema and swelling); type: in vivo, rat
[4] = tested on: Lewis rats with adjuvant-induced arthritis; experiment: Adjuvant-induced arthritis in Lewis rats, histological scoring of tarsal joints (Mankin and synovitis scores); type: in vivo, rat; details: for Tidemark Integrity (0-1) / Cartilage Cells (0-3) / Cartilage Structure (0-6) / Fibroplasia (0-3) / Inflammatory Cells (0-3) / Pannus (0-2) / Saffranin-O/Fast Green Staining (0-4) / Synovial Structure (0-3) / Total Mankin Score (0-14) / Total Synovitis Score (0-10): tarsal joints; for Cartilage Cells (0-3) / Cartilage Structure (0-6) / Fibroplasia (0-3) / Inflammatory Cells (0-3) / Pannus (0-2) / Saffranin-O/Fast Green Staining (0-4) / Synovial Structure (0-3) / Total Mankin Score (0-14) / Total Synovitis Score (0-10): mean ± SD
Protocol: Statistical analysis was performed using Abacus Concepts Super ANOVA. (Abacus Concepts, Inc., Berkeley, Calif.). All of the parameters of interest were subjected to Analysis of Variance with Duncan's new multiple range post hoc testing between groups. Data are expressed throughout as mean±standard deviation (SD), and differences were deemed significant if p<0.05.
At the end of the study the rats were euthanized with CO2, hindlimbs were removed at necropsy and fixed in 10% buffered formalin, and the tarsal joints were decalcified and embedded in paraffin. Histologic sections will be stained with Hematoxylin and Eosin or Saffranin O—Fast Green stain.
Slides will be coded so that the examiner will be blinded to the treatment groups. […] Articular cartilage and bone will be evaluated using Mankin's histological grading system (method described by Mankin H J, Dorfman, H:Lippieo L. L. Zarins. 1971. Biochemical and metabolic abnormalities in articular cartilage from osteoarthritic human hip. See J. Bone Joint Surg (AM) 53A:152-153) (Table 6).

BALB/c mice = experiment: Collagen induced arthritis model (anti-type II collagen mAbs plus LPS), hind paw volume; type: in vivo, mouse; details: 2.5 mg/kg orally once daily; over the course of the experiment
Protocol: Compounds are evaluated in BALB/c mice, 6-8 weeks of age, in which arthritis is induced by monoclonal antibodies raised against type II collagen, plus lipopolysaccharide (LPS). The animals were administered intravenously with a combination of 4 different mAbs totaling 4 mg/mouse on day 0, and followed by intravenous 25 μg of LPS 72 hours later (day 3). From day 3, one hour after LPS application, tested compounds are give orally once daily for 15 days. For each animal, increase in volume of both hind paws is measured using a plethysmometer with water cell (12 mm diameter) on days 0, 5, 7, 10, 14 and 17. Percent inhibition of increase in volume is calculated. Reduction of edema in the hind paws by 30% or more is considered significant.

[5] = 0.1 mg/kg orally for 2 weeks from day 8 after CFA
[6] = 0.3 mg/kg orally for 2 weeks from day 8 after CFA
[7] = 1 mg/kg orally for 2 weeks from day 8 after CFA

melting point: 186 to 188 °C
SMILES: COc1cc(OC)cc(N2CCN(C(=O)[C@](C)(C#N)[C@H](c3ccccc3OC)c3cccc4ccccc34)CC2)c1 [Example 4, (S)-3-[4-(3,5-dimethoxyphenyl)piperazin-1-yl]-2-[(S)-(2-methoxyphenyl)(1-naphthyl)methyl]-2-methyl-3-oxopropanenitrile]

SMILES: C[C@]12C=CC(=O)C=C1CC[C@@H]1[C@@H]2[C@@H](O)C[C@@]2(C)[C@H]1CC[C@]2(O)C(=O)CO [Prednisolone]
improvement in the joint scores (HLA-B27 transgenic rats [1]): 50%
Tidemark Integrity (0-2) (HLA-B27 transgenic rats [2]): 0
Cartilage Cells (HLA-B27 transgenic rats [2]; mean ± SD): 2.20 ± 0.45
Cartilage Structure (0-6) (HLA-B27 transgenic rats [2]; mean ± SD): 3.40 ± 0.55
Fibroplasia (0-3) (HLA-B27 transgenic rats [2]; mean ± SD): 2.00 ± 0.71
Inflammatory Cells (0-3) (HLA-B27 transgenic rats [2]; mean ± SD): 2.00 ± 0.00
Pannus (0-2) (HLA-B27 transgenic rats [2]; mean ± SD): 1.60 ± 0.89
Safranin-O/Fast Green Staining (0-4) (HLA-B27 transgenic rats [2]; mean ± SD): 3.00 ± 0.00
Synovial Structure (0-3) (HLA-B27 transgenic rats [2]; mean ± SD): 2.40 ± 0.55
Total Mankin Score (HLA-B27 transgenic rats [2]; mean ± SD): 8.60 ± 0.89
Total Synovitis Score (0-11) (HLA-B27 transgenic rats [2]; mean ± SD): 8.00 ± 1.87

melting point: 188 °C
SMILES: C[C@@H]1c2cc(F)ccc2-c2ccccc2N1S(=O)(=O)c1ccc(O)cc1 (stereo in doubt) [Example 3, 4-[(8-Fluoro-6-methylphenanthridin-5(6H)-yl)sulfonyl]phenol]
joint scores (paw swelling and redness, maximal score per day 12) ([3]; Day 8, 0.1 mg/kg orally each day from Day 8 after adjuvant): 11.3
joint scores (paw swelling and redness, maximal score per day 12) ([3]; Day 8, 0.3 mg/kg orally each day from Day 8 after adjuvant): 11.5
joint scores (paw swelling and redness, maximal score per day 12) ([3]; Day 8, 1 mg/kg orally each day from Day 8 after adjuvant): 11.3
joint scores (paw swelling and redness, maximal score per day 12) ([3]; Day 9, 0.1 mg/kg orally each day from Day 8 after adjuvant): 10.7
joint scores (paw swelling and redness, maximal score per day 12) ([3]; Day 9, 0.3 mg/kg orally each day from Day 8 after adjuvant): 9.8
joint scores (paw swelling and redness, maximal score per day 12) ([3]; Day 9, 1 mg/kg orally each day from Day 8 after adjuvant): 8.8
joint scores (paw swelling and redness, maximal score per day 12) ([3]; Day 10, 0.1 mg/kg orally each day from Day 8 after adjuvant): 9.3
joint scores (paw swelling and redness, maximal score per day 12) ([3]; Day 10, 0.3 mg/kg orally each day from Day 8 after adjuvant): 7.3
joint scores (paw swelling and redness, maximal score per day 12) ([3]; Day 10, 1 mg/kg orally each day from Day 8 after adjuvant): 7
joint scores (paw swelling and redness, maximal score per day 12) ([3]; Day 11, 0.1 mg/kg orally each day from Day 8 after adjuvant): 9.7
joint scores (paw swelling and redness, maximal score per day 12) ([3]; Day 11, 0.3 mg/kg orally each day from Day 8 after adjuvant): 7
joint scores (paw swelling and redness, maximal score per day 12) ([3]; Day 11, 1 mg/kg orally each day from Day 8 after adjuvant): 6
joint scores (paw swelling and redness, maximal score per day 12) ([3]; Day 12, 0.1 mg/kg orally each day from Day 8 after adjuvant): 10
joint scores (paw swelling and redness, maximal score per day 12) ([3]; Day 12, 0.3 mg/kg orally each day from Day 8 after adjuvant): 6.7
joint scores (paw swelling and redness, maximal score per day 12) ([3]; Day 12, 1 mg/kg orally each day from Day 8 after adjuvant): 5
joint scores (paw swelling and redness, maximal score per day 12) ([3]; Day 13, 0.1 mg/kg orally each day from Day 8 after adjuvant): 4.2
joint scores (paw swelling and redness, maximal score per day 12) ([3]; Day 13, 0.3 mg/kg orally each day from Day 8 after adjuvant): 3.7
joint scores (paw swelling and redness, maximal score per day 12) ([3]; Day 13, 1 mg/kg orally each day from Day 8 after adjuvant): 1.7
joint scores (paw swelling and redness, maximal score per day 12) ([3]; Day 14, 0.1 mg/kg orally each day from Day 8 after adjuvant): 3.5
joint scores (paw swelling and redness, maximal score per day 12) ([3]; Day 14, 0.3 mg/kg orally each day from Day 8 after adjuvant): 3
joint scores (paw swelling and redness, maximal score per day 12) ([3]; Day 14, 1 mg/kg orally each day from Day 8 after adjuvant): 1.3
joint scores (paw swelling and redness, maximal score per day 12) ([3]; Day 15, 0.1 mg/kg orally each day from Day 8 after adjuvant): 3.5
joint scores (paw swelling and redness, maximal score per day 12) ([3]; Day 15, 0.3 mg/kg orally each day from Day 8 after adjuvant): 3.7
joint scores (paw swelling and redness, maximal score per day 12) ([3]; Day 15, 1 mg/kg orally each day from Day 8 after adjuvant): 1.3
joint scores (paw swelling and redness, maximal score per day 12) ([3]; Day 16, 0.1 mg/kg orally each day from Day 8 after adjuvant): 3.3
joint scores (paw swelling and redness, maximal score per day 12) ([3]; Day 16, 0.3 mg/kg orally each day from Day 8 after adjuvant): 2.3
joint scores (paw swelling and redness, maximal score per day 12) ([3]; Day 16, 1 mg/kg orally each day from Day 8 after adjuvant): 1.2
joint scores (paw swelling and redness, maximal score per day 12) ([3]; Day 17, 0.1 mg/kg orally each day from Day 8 after adjuvant): 3.3
joint scores (paw swelling and redness, maximal score per day 12) ([3]; Day 17, 0.3 mg/kg orally each day from Day 8 after adjuvant): 2.3
joint scores (paw swelling and redness, maximal score per day 12) ([3]; Day 17, 1 mg/kg orally each day from Day 8 after adjuvant): 1.2
joint scores (paw swelling and redness, maximal score per day 12) ([3]; Day 18, 0.1 mg/kg orally each day from Day 8 after adjuvant): 3.3
joint scores (paw swelling and redness, maximal score per day 12) ([3]; Day 18, 0.3 mg/kg orally each day from Day 8 after adjuvant): 2.3
joint scores (paw swelling and redness, maximal score per day 12) ([3]; Day 18, 1 mg/kg orally each day from Day 8 after adjuvant): 1.2
joint scores (paw swelling and redness, maximal score per day 12) ([3]; Day 19, 0.1 mg/kg orally each day from Day 8 after adjuvant): 3
joint scores (paw swelling and redness, maximal score per day 12) ([3]; Day 19, 0.3 mg/kg orally each day from Day 8 after adjuvant): 2
joint scores (paw swelling and redness, maximal score per day 12) ([3]; Day 19, 1 mg/kg orally each day from Day 8 after adjuvant): 1.2
joint scores (paw swelling and redness, maximal score per day 12) ([3]; Day 20, 0.1 mg/kg orally each day from Day 8 after adjuvant): 2.8
joint scores (paw swelling and redness, maximal score per day 12) ([3]; Day 20, 0.3 mg/kg orally each day from Day 8 after adjuvant): 2
joint scores (paw swelling and redness, maximal score per day 12) ([3]; Day 20, 1 mg/kg orally each day from Day 8 after adjuvant): 1.2
joint scores (paw swelling and redness, maximal score per day 12) ([3]; Day 21, 0.1 mg/kg orally each day from Day 8 after adjuvant): 2.5
joint scores (paw swelling and redness, maximal score per day 12) ([3]; Day 21, 0.3 mg/kg orally each day from Day 8 after adjuvant): 1.7
joint scores (paw swelling and redness, maximal score per day 12) ([3]; Day 21, 1 mg/kg orally each day from Day 8 after adjuvant): 1.2
joint scores (paw swelling and redness, maximal score per day 12) ([3]; Day 22, 0.1 mg/kg orally each day from Day 8 after adjuvant): 2.5
joint scores (paw swelling and redness, maximal score per day 12) ([3]; Day 22, 0.3 mg/kg orally each day from Day 8 after adjuvant): 1.7
joint scores (paw swelling and redness, maximal score per day 12) ([3]; Day 22, 1 mg/kg orally each day from Day 8 after adjuvant): 1.2
joint scores (paw swelling and redness, maximal score per day 12) ([3]; Day 23, 0.1 mg/kg orally each day from Day 8 after adjuvant): 1.2
joint scores (paw swelling and redness, maximal score per day 12) ([3]; Day 23, 0.3 mg/kg orally each day from Day 8 after adjuvant): 1
joint scores (paw swelling and redness, maximal score per day 12) ([3]; Day 23, 1 mg/kg orally each day from Day 8 after adjuvant): 1
joint scores (paw swelling and redness, maximal score per day 12) ([3]; Day 24, 0.1 mg/kg orally each day from Day 8 after adjuvant): 1.3
joint scores (paw swelling and redness, maximal score per day 12) ([3]; Day 24, 0.3 mg/kg orally each day from Day 8 after adjuvant): 1.3
joint scores (paw swelling and redness, maximal score per day 12) ([3]; Day 24, 1 mg/kg orally each day from Day 8 after adjuvant): 0.8
Tidemark Integrity (0-1) [4, 5]: 0
Cartilage Cells (0-3) [4, 5]: 1.92 ± 0.21
Cartilage Structure (0-6) [4, 5]: 2.33 ± 0.68
Fibroplasia (0-3) [4, 5]: 1.75 ± 0.42
Inflammatory Cells (0-3) [4, 5]: 1.83 ± 0.52
Pannus (0-2) [4, 5]: 1.50 ± 0.84
Saffranin-O/Fast Green Staining (0-4) [4, 5]: 2.42 ± 0.67
Synovial Structure (0-3) [4, 5]: 2.33 ± 0.75
Total Mankin Score (0-14) [4, 5]: 6.83 ± 1.25
Total Synovitis Score (0-10) [4, 5]: 7.42 ± 2.25
Tidemark Integrity (0-1) [4, 6]: 0
Cartilage Cells (0-3) [4, 6]: 1.50 ± 0.32
Cartilage Structure (0-6) [4, 6]: 1.75 ± 0.42
Fibroplasia (0-3) [4, 6]: 1.67 ± 0.26*t
Inflammatory Cells (0-3) [4, 6]: 1.25 ± 0.27
Pannus (0-2) [4, 6]: 0.50 ± 0.84
Saffranin-O/Fast Green Staining (0-4) [4, 6]: 2.17 ± 0.26
Synovial Structure (0-3) [4, 6]: 1.58 ± 0.38
Total Mankin Score (0-14) [4, 6]: 5.42 ± 0.74*t
Total Synovitis Score (0-10) [4, 6]: 5.00 ± 1.30*#t
Tidemark Integrity (0-1) [4, 7]: 0
Cartilage Cells (0-3) [4, 7]: 1.17 ± 0.26*t
Cartilage Structure (0-6) [4, 7]: 1.25 ± 0.27
Fibroplasia (0-3) [4, 7]: 1.33 ± 0.41*t
Inflammatory Cells (0-3) [4, 7]: 1.17 ± 0.26
Pannus (0-2) [4, 7]: 0.25 ± 0.42
Saffranin-O/Fast Green Staining (0-4) [4, 7]: 2.17 ± 0.26
Synovial Structure (0-3) [4, 7]: 1.42 ± 0.38
Total Mankin Score (0-14) [4, 7]: 4.58 ± 0.74*t
Total Synovitis Score (0-10) [4, 7]: 4.17 ± 1.21*#t
overall synovitis and cartilage scores ([4]; all concentrations tested (down to 0.1 mg/kg), oral): significantly improved
inhibition of paw edema (increase in hind paw volume) (BALB/c mice): > 30%
